Results reported in patent publication US7879837B2, “Therapeutic or prophylactic agent for multiple sclerosis” (Toray Industries, Inc., priority 2006, dated 2011).
Counter-ions that a name gives are not always drawn. Like-named read-outs stand apart in the source and are kept apart here.

Legend:
Jurkat cells = assay: Measurement of Inhibitory Effect on Leukocyte Functions (adhesion of Jurkat cells to ligand-expressing cells or ligand-immobilized plate); type: cell-based; settings: Homo sapiens, 0.5 h, read-out: IC50 (concentration at which the number of adherent cells is reduced by 50%)
Method: Jurkat cells, which are the cell line originated from human acute T cell […], were allowed to react with BCECF-AM at 37° C. for 20 minutes to fluorescently label the cells. The fluorescently labelled Jurkat cells were allowed to react with ligand-expressing cells or with a ligand-immobilized plate at 37° C. for 30 minutes. After removing non-adherent cells by washing, 1% NP40 was added thereto to lyse the adherent cells, and fluorescence intensity was measured with Cytofluor 2300 (Millipore). From the obtained fluorescence intensity, the number of adherent cells was calculated. Each test compound was reacted with the Jurkat cells before the beginning of the adhesion reaction. In Table 18, the IC50 of each compound (i.e. the concentration at which the number of adherent cells is reduced by 50%) is shown.

[1] = test system: Mouse Experimental Autoimmune Encephalomyelitis Model; assay: Inhibitory Effect of Compounds Against Mouse Experimental Autoimmune Encephalomyelitis Model; type: in vivo; settings: orally 50 mg/kg every day from one day before inoculation of PLP139-151; female SJL mouse; scored at Days 11, 12 or 14
Method: This method was carried out in accordance with the literature “Int. Immunol., 9, 1243-1251 (1997)”.
A PBS solution containing 2 mg/mL partial synthetic peptide (PLP139-151) of proteolipid protein was mixed with an equal amount of Freund's complete adjuvant, and the resulting mixture was inoculated intracutaneously into both lateral regions of 7-week-old female SJL mouse (Charles River Laboratories Japan) in a total amount of 0.1 mL (0.05 mL per one side). The compounds described in Example 77, Example 78, Example 80, Example 81, Example 83 and Example 84 were orally administered at a dose of 50 mg/kg every day from one day before the inoculation, and neurological symptoms was scored (0: normal, 1: limp tail or hind limb weakness, 2: limp tail and hind limb weakness, 3: partial hind limb paralysis, 4: complete hind limb paralysis, 5: moribund state) at Days 11, 12 or 14. The scoring was carried out by using the method described in Current Protocols in Immunology (John Wiley & Sons, Inc).

[2] = Pharmacokinetic Evaluation in Rats; type: in vivo; settings: rat, male SD rats, administered orally or intravenously, 0.5 mg/mL dosing solution, plasma up to 8 hours; for clearance: intravenous, read-out: CLtot (total clearance) (converted); for bioavailability: oral, read-out: BA (bioavailability)
Method: Each compound was dissolved in PBS or PBS containing 10% PEG, thereby preparing 0.5 mg/mL dosing solution. The compound was administered orally or intravenously to male SD rats (7 to 9 weeks old). Blood was collected with time from the tail vein at time points up to 8 hours after the administration, and obtained blood was centrifuged to collect blood plasma. The blood plasma was pretreated by using the solid-phase extraction method, and the concentration of the compound was analyzed with LC/MS/MS (ESI negative mode).
As the Comparative Compound, 2-[4-((3,5-dichlorobenzensulfonylamino)methyl)benzoylamino]-5-(4-(methyl-pyrimidin-2-ylamino)phenyl)pent-4-enoic acid (XXI) described in WO 99/26923 was used.

[3] = Jurkat cell adhesion to ligand-expressing cells or ligand-immobilized plate, 37° C., 30 minutes

Structure (SMILES)	IC50 (Jurkat cells; [3])	clearance [2]	bioavailability [2]	IC50 (Jurkat cells)	rate of reduction of increase in the score of neurological symptoms [1]
CCCCN(c1ccc(/C=C/CC(NC(=O)c2c(Cl)cccc2Cl)C(=O)O)cc1)c1ncccn1 (stereo not shown) [Example 37, (E)-5-(4-Butyl-pyrimidin-2-yl-amino)-phenyl]-2-(2,6-dichlorobenzamido)-pent-4-enoic acid sodium salt]	–	–	–	160 nM	–
CC(C)=CCN(c1ccc(/C=C/CC(NC(=O)c2c(Cl)cccc2Cl)C(=O)O)cc1)c1ncccn1 (stereo not shown) [Example 51, (E)-2-(2,6-Dichlorobenzamido)-5-[4-((3-methyl-2-butenyl)-pyrimidin-2-ylamino)phenyl]pent-4-enoic acid sodium salt]	100 nM	–	–	–	–
O=C(NC(C/C=C/c1ccc(N(CC2CC2)c2ncccn2)cc1)C(=O)O)c1c(Cl)cccc1Cl (stereo not shown) [Example 53, (E)-5-[4-(Cyclopropylmethyl-pyrimidin-2-ylamino)phenyl]-2-(2,6-dichlorobenzamido)pent-4-enoic acid sodium salt]	–	–	–	120 nM	–
CC(C)CN(c1ccc(/C=C/CC(NC(=O)c2c(Cl)cccc2Cl)C(=O)O)cc1)c1ncccn1 (stereo not shown) [Example 55, (E)-2-(2,6-Dichlorobenzamido)-5-[4-(isobutyl-pyrimidin-2-ylamino)phenyl]pent-4-enoic acid sodium salt]	–	–	–	420 nM	–
COC1(c2ccc(/C=C/C[C@H](NC(=O)c3c(Cl)cccc3Cl)C(=O)O)cc2)CCOCC1 [Example 77, (S,E)-2-(2,6-Dichlorobenzamido)-5-[4-(4-methoxytetrahydropyran-4-yl)-phenyl]pent-4-enoic acid]	49 nM	16 mL/min/kg	20%	–	40%
COC1(c2ccc(/C=C/C[C@H](NC(=O)c3c(Cl)cccc3Cl)C(=O)[O-])cc2)CCOCC1.[Na+] [Example 78, (S,E)-2-(2,6-Dichlorobenzamido)-5-[4-(4-methoxytetrahydropyran-4-yl)-phenyl]pent-4-enoic acid sodium salt]	–	16.6 mL/min/kg	26.1%	–	60%

Continued, in another order:

IC50 (Jurkat cells; [3])	clearance [2]	bioavailability [2]	Structure (SMILES)	IC50 (Jurkat cells)	rate of reduction of increase in the score of neurological symptoms [1]
95 nM	15.1 mL/min/kg	47.6%	CN(c1ccc(/C=C/C[C@H](NC(=O)c2c(Cl)cccc2Cl)C(=O)O)cc1)c1ncccn1 [Example 80, (S,E)-2-(2,6-Dichlorobenzamido)-5-[4-(methyl-pyrimidin-2-ylamino)phenyl]pent-4-enoic acid]	–	60%
–	16.1 mL/min/kg	50.9%	CN(c1ccc(/C=C/C[C@H](NC(=O)c2c(Cl)cccc2Cl)C(=O)[O-])cc1)c1ncccn1.[Na+] [Example 81, (S,E)-2-(2,6-Dichlorobenzamido)-5-[4-(methyl-pyrimidin-2-ylamino)phenyl]pent-4-enoic acid sodium salt]	–	68%
17 nM	18.1 mL/min/kg	40%	CC(C)N(c1ccc(/C=C/C[C@H](NC(=O)c2c(Cl)cccc2Cl)C(=O)O)cc1)c1ncccn1 [Example 83, (S,E)-2-(2,6-Dichlorobenzamido)-5-[4-(isopropyl-pyrimidin-2-ylamino)phenyl]pent-4-enoic acid]	–	70%
–	19.6 mL/min/kg	58.5%	CC(C)N(c1ccc(/C=C/C[C@H](NC(=O)c2c(Cl)cccc2Cl)C(=O)[O-])cc1)c1ncccn1.[Na+] [Example 84, (S,E)-2-(2,6-Dichlorobenzamido)-5-[4-(isopropyl-pyrimidin-2-ylamino)phenyl]pent-4-enoic acid sodium salt]	–	67%
